One experiment has as its system FADD−/− Jurkat cells. Kind of experiment: Necroptosis inhibition assay, TNF-α-induced necroptosis (CellTiter-Glo 2.0). In kind it is cell-based, human. Particulars: TNF-α 15 ng/mL; for Necroptosis inhibition assay (Rescue %) 1 μM: compound 1 μM; for Necroptosis inhibition assay (Rescue %) 10 μM: compound 10 μM. The essentials: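 FADD−/− Jurkat cells preincubated 30 min at room temperature with compound at 0.1, 1 and 10 μM final, then stimulated with TNF-α (15 ng/mL final) for 20–24 h at 37 °C, 5% CO2. Viability read as ATP luminescence; cytotoxicity and necroptosis inhibition rate calculated from luminescence values.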

Experiment [1] concerns the target T1, MLKL (Homo sapiens, UniProt Q8NB16).
T1 sequence (Q8NB16 1-471): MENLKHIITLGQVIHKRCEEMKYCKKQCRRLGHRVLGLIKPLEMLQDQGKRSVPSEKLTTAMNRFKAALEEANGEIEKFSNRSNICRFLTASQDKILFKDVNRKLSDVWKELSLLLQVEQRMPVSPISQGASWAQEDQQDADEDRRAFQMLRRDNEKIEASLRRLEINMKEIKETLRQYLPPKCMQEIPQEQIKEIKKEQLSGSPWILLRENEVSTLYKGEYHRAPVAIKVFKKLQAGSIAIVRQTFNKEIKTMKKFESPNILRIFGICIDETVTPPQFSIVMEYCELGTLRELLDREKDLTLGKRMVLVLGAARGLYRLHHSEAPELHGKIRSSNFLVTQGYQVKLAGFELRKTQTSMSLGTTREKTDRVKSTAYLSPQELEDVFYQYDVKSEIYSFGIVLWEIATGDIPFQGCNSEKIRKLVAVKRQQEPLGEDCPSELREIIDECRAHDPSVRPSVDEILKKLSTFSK
In words: MLKL degradation assay in HepG2 cell line (western blot). It counts as cell-based. More on the design: endogenous in cells; host or cells: HepG2 or HaCaT. Particulars: cell line not given; for Degradation assay (Degradation %) 1 μM: compound 1 μM; for Degradation assay (Degradation %) 10 μM: compound 10 μM. The essentials:
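HepG2 cells were treated 20-24 h at 37 °C with compound at 1 or 10 μM final. RIPA lysates were normalized by BCA, and 10-15 μg protein per lane was resolved by SDS-PAGE. MLKL was detected by western blot with chemiluminescence.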

Experiment [2] concerns the target T1, MLKL. In words: Measurement of binding affinity with MLKL receptor (competitive binding assay, Kd). Also on record: made in house; host or cells: HEK 293 cell line (T7 phage in E. coli BL21-derived host is also described). The essentials:
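Kd from an immobilized-ligand competition format: the DNA-tagged kinase from HEK 293 expression is eluted and quantified by qPCR. Compounds added from 111× DMSO stocks, final DMSO 0.9%.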

Structures are written as SMILES. pKd: −log10 of the molar value.

On to `Nc1ncc(-c2cnn(C3CCN(CCCCCCNC(=O)C4CN(c5ccc6c(c5)C(=O)N(C5CCC(=O)NC5=O)C6=O)C4)CC3)c2)nc1C(=O)O[C@@H](C(=O)Nc1ccc(F)cc1)c1ccccc1` (stereo partly drawn) [TDH-114, (R)-2-((4-fluorophenyl)amino)-2-oxo-1-phenylethyl 3-amino-6-(1-(1-(6-(1-(2-(2,6-dioxopiperidin-3-yl)-1,3-dioxoisoindolin-5-yl)azetidine-3-carboxamido)hexyl)piperidin-4-yl)-1H-pyrazol-4-yl)pyrazine-2-carboxylate], for which, in the experiment on FADD−/− Jurkat cells, the “Necroptosis inhibition assay (Rescue %) 1 μM” value is listed as 13.68% and the “Necroptosis inhibition assay (Rescue %) 10 μM” value is 38.3%. In addition, at MLKL [1], the “Degradation assay (Degradation %) 1 μM” value was 8.68% and the “Degradation assay (Degradation %) 10 μM” value was determined as 62.79%. The compound also showed a pKd on MLKL [2] of 9.08.

As for `Nc1ncc(-c2cnn(C3CCN(C[C@H]4CC[C@H](CNC(=O)C5CCN(c6ccc7c(c6)C(=O)N(C6CCC(=O)NC6=O)C7=O)CC5)CC4)CC3)c2)nc1C(=O)O[C@@H](C(=O)Nc1ccc(F)cc1)c1ccccc1` (stereo partly drawn) [TDH-350, (R)-2-((4-fluorophenyl)amino)-2-oxo-1-phenylethyl 3-amino-6-(1-(1-(((1r,4r)-4-((1-(2-(2,6-dioxopiperidin-3-yl)-1,3-dioxoisoindolin-5-yl)piperidine-4-carboxamido)methyl)cyclohexyl)methyl)piperidin-4-yl)-1H-pyrazol-4-yl)pyrazine-2-carboxylate], in the experiment on FADD−/− Jurkat cells, the “Necroptosis inhibition assay (Rescue %) 1 μM” value was 39.64% and the “Necroptosis inhibition assay (Rescue %) 10 μM” value is 34.84%. For the same compound, on MLKL [1], the “Degradation assay (Degradation %) 1 μM” value is 86.13% and the “Degradation assay (Degradation %) 10 μM” value came out at 88.73%. This compound gave a pKd at MLKL [2] of 8.43.

For the compound `Nc1ncc(-c2cnn(C3CCN(CCCCCCNC(=O)COc4ccc5c(c4)C(=O)N(C4CCC(=O)NC4=O)C5=O)CC3)c2)nc1C(=O)O[C@@H](C(=O)Nc1ccc(F)cc1)c1ccccc1` (stereo partly drawn) [TDH-165, (R)-2-((4-fluorophenyl)amino)-2-oxo-1-phenylethyl 3-amino-6-(1-(1-(6-(2-((2-(2,6-dioxopiperidin-3-yl)-1,3-dioxoisoindolin-5-yl)oxy)acetamido)hexyl)piperidin-4-yl)-1H-pyrazol-4-yl)pyrazine-2-carboxylate], in the experiment on FADD−/− Jurkat cells, the “Necroptosis inhibition assay (Rescue %) 1 μM” value turned out to be 52.37% and the “Necroptosis inhibition assay (Rescue %) 10 μM” value is 4.66%. In addition, on MLKL [1], the “Degradation assay (Degradation %) 1 μM” value was determined as 62.49% and the “Degradation assay (Degradation %) 10 μM” value is given as 61.44%. Further, on MLKL [2], the pKd was 9.05.

Turning to `Nc1ncc(-c2cnn(C3CCN(CCCN4CCN(C(=O)C5CCN(c6cccc7c6C(=O)N(C6CCC(=O)NC6=O)C7=O)CC5)CC4)CC3)c2)nc1C(=O)OC(C(=O)Nc1ccc(F)cc1)c1ccccc1` (stereo not shown) [TDH-239, 2-((4-fluorophenyl)amino)-2-oxo-1-phenylethyl 3-amino-6-(1-(1-(3-(4-(1-(2-(2,6-dioxopiperidin-3-yl)-1,3-dioxoisoindolin-4-yl)piperidine-4-carbonyl)piperazin-1-yl)propyl)piperidin-4-yl)-1H-pyrazol-4-yl)pyrazine-2-carboxylate], in the experiment on FADD−/− Jurkat cells, the “Necroptosis inhibition assay (Rescue %) 1 μM” value was 40.3% and the “Necroptosis inhibition assay (Rescue %) 10 μM” value is listed as 23.29%. Also, at MLKL [1], the “Degradation assay (Degradation %) 1 μM” value was 53.9% and the “Degradation assay (Degradation %) 10 μM” value worked out at 65.78%. On MLKL [2], this compound showed a pKd of 8.42.

As to `Nc1ncc(-c2cnn(C3CCN(CC4CCN(C(=O)C5CCN(c6ccc7nnn(C8CCC(=O)NC8=O)c(=O)c7c6)CC5)CC4)CC3)c2)nc1C(=O)O[C@@H](C(=O)Nc1ccc(F)cc1)c1ccccc1` (stereo partly drawn) [TDH-151, (R)-2-((4-fluorophenyl)amino)-2-oxo-1-phenylethyl 3-amino-6-(1-(1-((1-(1-(3-(2,6-dioxopiperidin-3-yl)-4-oxo-3,4-dihydrobenzo[d][1,2,3]triazin-6-yl)piperidine-4-carbonyl)piperidin-4-yl)methyl)piperidin-4-yl)-1H-pyrazol-4-yl)pyrazine-2-carboxylate], in the experiment with FADD−/− Jurkat cells, the “Necroptosis inhibition assay (Rescue %) 1 μM” value is recorded as 85.85% and the “Necroptosis inhibition assay (Rescue %) 10 μM” value is reported as 60.12%. Moreover, on MLKL [1], the “Degradation assay (Degradation %) 1 μM” value stood at 84.58% and the “Degradation assay (Degradation %) 10 μM” value was 77.74%. The same compound showed a pKd on MLKL [2] of 7.92.

Consider `Nc1ncc(-c2cnn(C3CCN(C(=O)c4cn(C5CCN(C(=O)CNc6cccc7c6C(=O)N(C6CCC(=O)NC6=O)C7=O)CC5)cn4)CC3)c2)nc1C(=O)O[C@@H](C(=O)Nc1ccc(F)cc1)c1ccccc1` (stereo partly drawn) [TDH-356, (R)-2-((4-fluorophenyl)amino)-2-oxo-1-phenylethyl 3-amino-6-(1-(1-(1-(1-((2-(2,6-dioxopiperidin-3-yl)-1,3-dioxoisoindolin-4-yl)glycyl)piperidin-4-yl)-1H-imidazole-4-carbonyl)piperidin-4-yl)-1H-pyrazol-4-yl)pyrazine-2-carboxylate], for which, in the experiment with FADD−/− Jurkat cells, the “Necroptosis inhibition assay (Rescue %) 1 μM” value was found to be 5.27% and the “Necroptosis inhibition assay (Rescue %) 10 μM” value is recorded as 0.50%. In addition, the “Degradation assay (Degradation %) 1 μM” value at MLKL [1] was determined as 22.83%. Besides, the pKd at MLKL [2] is 8.34.

`Nc1ncc(-c2cnn(C3CCN(CCCCCCNC(=O)COc4cccc5c4C(=O)N(C4CCC(=O)NC4=O)C5=O)CC3)c2)nc1C(=O)O[C@@H](C(=O)Nc1ccc(F)cc1)c1ccccc1` (stereo partly drawn) [TDH-133, (R)-2-((4-fluorophenyl)amino)-2-oxo-1-phenylethyl 3-amino-6-(1-(1-(6-(2-((2-(2,6-dioxopiperidin-3-yl)-1,3-dioxoisoindolin-4-yl)oxy)acetamido)hexyl)piperidin-4-yl)-1H-pyrazol-4-yl)pyrazine-2-carboxylate]: in the experiment with FADD−/− Jurkat cells, the “Necroptosis inhibition assay (Rescue %) 1 μM” value was 91.87% and the “Necroptosis inhibition assay (Rescue %) 10 μM” value is given as 68.81%. At MLKL [1], the “Degradation assay (Degradation %) 1 μM” value is on record as 53.05% and the “Degradation assay (Degradation %) 10 μM” value is 40.54%. The pKd on MLKL [2] is 9.11.

As for `Nc1ncc(-c2cnn(C3CCN(C4CC5(CCN(CC6CCN(c7ccc8c(c7)C(=O)N(C7CCC(=O)NC7=O)C8=O)CC6)CC5)C4)CC3)c2)nc1C(=O)O[C@@H](C(=O)Nc1ccc(F)cc1)c1ccccc1` (stereo partly drawn) [TDH-472, (R)-2-((4-fluorophenyl)amino)-2-oxo-1-phenylethyl 3-amino-6-(1-(1-(7-((1-(2-(2,6-dioxopiperidin-3-yl)-1,3-dioxoisoindolin-5-yl)piperidin-4-yl)methyl)-7-azaspiro[3.5]nonan-2-yl)piperidin-4-yl)-1H-pyrazol-4-yl)pyrazine-2-carboxylate], in the experiment with FADD−/− Jurkat cells (FADD−/− Jurkat cells), the “Necroptosis inhibition assay (Rescue %) 1 μM” value is given as 27.45% and the “Necroptosis inhibition assay (Rescue %) 10 μM” value is on record as 1.07%. Moreover, at MLKL [1], the “Degradation assay (Degradation %) 1 μM” value is 50.63% and the “Degradation assay (Degradation %) 10 μM” value is 69.94%. In addition, the pKd on MLKL [2] was 8.80.

`Nc1ncc(-c2cnn(C3CCN(C(=O)CC4CCN(C(=O)C5CN(c6ccc7nnn(C8CCC(=O)NC8=O)c(=O)c7c6)C5)CC4)CC3)c2)nc1C(=O)O[C@@H](C(=O)Nc1ccc(F)cc1)c1ccccc1` (stereo partly drawn) [TDH-406, (R)-2-((4-fluorophenyl)amino)-2-oxo-1-phenylethyl 3-amino-6-(1-(1-(2-(1-(1-(3-(2,6-dioxopiperidin-3-yl)-4-oxo-3,4-dihydrobenzo[d][1,2,3]triazin-6-yl)azetidine-3-carbonyl)piperidin-4-yl)acetyl)piperidin-4-yl)-1H-pyrazol-4-yl)pyrazine-2-carboxylate]: in the experiment with FADD−/− Jurkat cells (FADD−/− Jurkat cells), the “Necroptosis inhibition assay (Rescue %) 1 μM” value was 44.99% and the “Necroptosis inhibition assay (Rescue %) 10 μM” value is listed as 39.97%. Also, at MLKL [1], the “Degradation assay (Degradation %) 1 μM” value is recorded as 77.69% and the “Degradation assay (Degradation %) 10 μM” value turned out to be 60.15%. For the same compound, the pKd at MLKL [2] is 8.19.

`Nc1ncc(-c2cnn(C3CCN(C(=O)CCC4CCN(C(=O)C5CN(c6ccc7c(c6)C(=O)N(C6CCC(=O)NC6=O)C7=O)C5)CC4)CC3)c2)nc1C(=O)O[C@@H](C(=O)Nc1ccc(F)cc1)c1ccccc1` (stereo partly drawn) [TDH-428, (R)-2-((4-fluorophenyl)amino)-2-oxo-1-phenylethyl 3-amino-6-(1-(1-(3-(1-(1-(2-(2,6-dioxopiperidin-3-yl)-1,3-dioxoisoindolin-5-yl)azetidine-3-carbonyl)piperidin-4-yl)propanoyl)piperidin-4-yl)-1H-pyrazol-4-yl)pyrazine-2-carboxylate]: in the experiment with FADD−/− Jurkat cells (FADD−/− Jurkat cells), the “Necroptosis inhibition assay (Rescue %) 1 μM” value is 27.27% and the “Necroptosis inhibition assay (Rescue %) 10 μM” value is reported as 9.58%. Further, at MLKL [1], the “Degradation assay (Degradation %) 1 μM” value stood at 58.66% and the “Degradation assay (Degradation %) 10 μM” value is reported as 85.95%. The compound further had a pKd on MLKL [2] of 8.39.

These data come from US20240252488A1 (KOREA RESEARCH INSTITUTE OF CHEMICAL TECHNOLOGY, priority 2020, published 2024).
